# Test results from US6642365B1, “Anti-(retro)viral conjugates of saccharides and acetamidino or guanidino compounds” (Yeda Research and Development Co. Ltd., priority 2001, dated 2003).
# Experiments:
# TAR RNA = test: Gel-shift binding to TAR RNA; design: species or system HIV-1; conditions: for Kd: CD50 normalized to the reported conditions (Calnan et al., 1991 b), read-out: apparent Kd; for effect of ten-fold excess of yeast tRNA on complex formation with TAR: ten-fold excess of tRNA (100 ng per lane)
# Method: The model Tat peptide (R52: […]) was prepared by the Weizmann Institute Chemical Services and was purified by reverse phase HPLC (C-18) (Lapidot et al., 1995). […] The RNA was transcriptionally labeled with α-^32P UTP, purified on a 12% polyacrylamide/7M urea gel (19:1 acrylamide:bis-acrylamide) and was eluted from the gel by 0.5M ammonium acetate, 10 mM magnesium acetate, 1 mM EDTA and 0.1% SDS. The sample was subjected to phenol extraction and the RNA was precipitated from 70% ethanol. Purified RNA was dissolved in diethyl pyrocarbonate-treated water (DEPC water), its concentration was determined by UV absorption at 260 nm and the specific radioactivity was determined by scintillation counting on a LS 1701 “Bruker” counter.
# To study the affinity of the test compounds to TAR, gel-shift and gel-shift inhibition experiments were performed. The binding reaction mixtures (20 μl) contained ^32P-labeled TAR (18-44) RNA oligonucleotide (3-6 nM) and Tat R52 peptide (35-75 nM) in a binding buffer (10 mM Tris-HCl pH 7.5, 70 mM NaCl, 0.2 mM EDTA and 5% glycerol). The reaction mixtures were incubated for 10 minutes on ice and resolved by electrophoresis on a 10% non-denaturing polyacrylamide gel (40:1 acrylamide:bis-acrylamide) at 200V, for 3 h at 4° C. Gels were dried and visualized by autoradiography. Quantitations were obtained by optical densitometry of films. Alternatively, results were visualized by exposing the wet gels to Fuji phosphoimager plates, which were read on a “Storm 820” (Molecular Dynamics) phosphoimager. […]
# Binding of aminoglycoside-arginine conjugates (AAC) to TAR RNA was measured by adding varying concentrations of each conjugate to reaction mixtures (20 μl) which contained 12 nM ^32P-labeled TAR RNA. The reactions were analyzed as described above.
# [1] = tested on: equine infectious anemia virus (EIAV); test: Antiviral activity in EIAV-infected ED fibroblasts; format: cell-based; conditions: for EIAV replication in ED cells (FIG. 8): R3G at 12.5 and 25 μM, R4K at 50 and 100 μM, 10 pfu per cell
# Method: Both equine dermal fibroblasts (ED) and Equine Infectious Anemia Virus (EIAV), Wyoming isolate (Malmquist et al., 1973) were gifts from Profs. A. Yaniv and A. Gazit, from the Sackler Medical School of the Tel-Aviv University, Israel. ED cells were plated on plastic 6-well tissue culture plates (Nunclone) at density of […] per well in 2 ml of DMEM/10% FCS (fetal calf serum). The medium was removed after 12-20 hours and the cells were inoculated for 2 hours with 0.5 ml DMEM/10% FCS containing 5×10^6 pfu (plaque forming units) of EIAV and 10 μg/ml of polybrene (hexadimetrine bromide, Sigma) (Carpenter and Chesebro, 1989). Following the incubation, another 2.5 ml of DMEM/10% FCS was added to each well. […] Every […], 1.2 ml samples of the medium were collected and replaced with same amount of medium, containing radioactive uridine and the tested. The samples were clarified from cell debris by spinning at 12000 rpm for 5 minutes on the Eppendorf centrifuge. Viral particles from the clarified supernatants were collected by ultracentrifugation at 75000 rpm, 4° C. on the Beckman TL 100 centrifuge using TLA 100.2 rotor (Cheevers et al., 1977). The supernatants were carefully discarded and the pellet was resuspended in 200 μl of 1% SDS/5% Tritone X-100, mixed with 1 ml Ultima Gold scintillation liquid (Packard) and counted on LS 1701 Bruker scintillation counter. Typical duration of the experiment was 15 days; EIAV growth curves in the presence of various concentrations of the conjugates in the medium were obtained. Development of the cytopathic effect (cpe) in the infected ED cells was monitored by light microscopy.
# Equine infectious anemia virus (EIAV) of Wyoming strain is adapted to grow in equine dermal fibroblasts (ED), without damaging them with a titer of 1 μfu per cell (Malmquist virus). […] In the absence of inhibitors, EIAV proliferated in the ED cells reaching a plato 9-12 days after infection (FIG. 8). […] Development of cpe started 10-12 days after infection, reaching a maximum on days 15-17, followed by rapid cell death and exfoliation from the plastic bottom of the well.
# HIV-1 NL4-3 [2] = test: Anti-HIV assay, MTT, MT-4 cells; format: cell-based
# Method: The HIV-1 strains NL4-3 and Ba-L and the CD4^+lymphocytic cell lines SUP-T1, MT-4 and MT-2 and P4-CCR5 MAGI cells were obtained from the MRC AIDS reagent program or the NIH, AIDS Research and Reference Reagent Program.
# The cells were infected by incubation with different titers of the HIV-1 strains for 2 hrs at 37° C. in the presence or absence of the AAC of the invention. Then the cells were washed from the virus by centrifugation at 400 g and the supernatants were discarded. The cells were resuspended in culture medium, supplemented with different concentrations of the test compounds. The cells were allowed to proliferate for 5 days, the number of viable cells was quantified by a tetrazolium-based colorimetric method (CellTiter 96® AQueous One solution Cell Proliferation Assay, Promega). Anti-HIV activity in P4-CCR5 MAGI cells was done as follows: cells (1×10^5/ml) were infected with 10 ng/ml of p24 antigen of HIV-1 Ba-L in the presence of varying concentrations of the test compound. 24 hours post infection, cells were washed twice with PBS and resuspended in the medium containing the appropriate drug concentration. Five days after infection the cells were washed with PBS and evaluated for β-galactosidase activity.
# HIV-1 NL4-3 [3] = test: Virus-binding assay, p24 antigen bound to MT-4 cells; format: cell-based; conditions: 1 hour at 37° C.; dose dependent
# Method: (§1) MT4 cells (5×10^5) were incubated with supernatant containing 1×10^5 pg of p24 antigen of wild type HIV-1 in the presence of different concentrations of the test compound. One hour after infection, cells were washed 3 times with PBS and p24 antigen bound to the cells was determined by a commercial ELISA test (Coulter, Spain).
# R5 strain Ba-L = test: Virus-binding assay, MT-4 cells; format: cell-based, HIV-1; conditions: dose dependent; data not shown
# Method: as §1
Compound,"CD50 (TAR RNA; 50% binding, TAR RNA 12 nM) [nM]",Kd (TAR RNA) [nM],effect of ten-fold excess of yeast tRNA on complex formation with TAR (TAR RNA),"phenotype of EIAV-infected ED cells ([1]; 25 μM, day 13-15)","inhibition of cpe development ([1]; 25 and 50 μM, after 13-15 days)",EIAV replication in ED cells (FIG. 8) [1],"viral titer compared to control ([1]; added during cpe onset (day 12-13), read at day 15)",EC50 (HIV-1 NL4-3 [2]) [µM],binding of HIV-1 NL4-3 to MT-4 cells (HIV-1 NL4-3 [3]),binding of the R5 strain Ba-L to MT-4 cells (R5 strain Ba-L),CD50 (TAR RNA; 12 nM 32P-labeled TAR) [nM]
Triargininamido-gentamicin conjugate [R3G],~500,83,do not inhibit the binding,preserved normal fibroblast phenotype,noticeable inhibition of the cpe development,inhibited the viral growth,decreased at least twice,15,inhibit the binding,inhibited the binding,–
"N=C(N)NCCCC(N)C(=O)NCC1OC(OC2C(NC(=O)C(N)CCCNC(=N)N)CC(NC(=O)C(N)CCCNC(=N)N)C(OC3OC(CO)C(O)C(NC(=O)C(N)CCCNC(=N)N)C3O)C2O)C(O)C(O)C1O (stereo not drawn) [R4K, Tetraargininamido-kanamycin A conjugate]",2500,416,do not inhibit the binding,–,–,inhibited the viral growth,–,31,inhibit the binding,inhibited the binding,2500
